{"source": "paper doi:10.1101/049825v1", "about": "“Htm1p-Pdi1p is a folding sensitive mannosidase that marks N-glycoproteins for ER-associated protein degradation” (biorxiv, 2016)", "target": "T1, Htm1p-Pdi1p (Saccharomyces cerevisiae, UniProt P38888)", "T1 construct": "gene MNL1; full-length HTM1 coding region with C-terminal 3xFLAG-HDEL tag (released by TEV), chromosomal TDH3 promoter, strain yJW1820; co-purified with endogenous Pdi1p, near 1:1; with Protein disulfide-isomerase", "T1 sequence (P38888 21-796)": "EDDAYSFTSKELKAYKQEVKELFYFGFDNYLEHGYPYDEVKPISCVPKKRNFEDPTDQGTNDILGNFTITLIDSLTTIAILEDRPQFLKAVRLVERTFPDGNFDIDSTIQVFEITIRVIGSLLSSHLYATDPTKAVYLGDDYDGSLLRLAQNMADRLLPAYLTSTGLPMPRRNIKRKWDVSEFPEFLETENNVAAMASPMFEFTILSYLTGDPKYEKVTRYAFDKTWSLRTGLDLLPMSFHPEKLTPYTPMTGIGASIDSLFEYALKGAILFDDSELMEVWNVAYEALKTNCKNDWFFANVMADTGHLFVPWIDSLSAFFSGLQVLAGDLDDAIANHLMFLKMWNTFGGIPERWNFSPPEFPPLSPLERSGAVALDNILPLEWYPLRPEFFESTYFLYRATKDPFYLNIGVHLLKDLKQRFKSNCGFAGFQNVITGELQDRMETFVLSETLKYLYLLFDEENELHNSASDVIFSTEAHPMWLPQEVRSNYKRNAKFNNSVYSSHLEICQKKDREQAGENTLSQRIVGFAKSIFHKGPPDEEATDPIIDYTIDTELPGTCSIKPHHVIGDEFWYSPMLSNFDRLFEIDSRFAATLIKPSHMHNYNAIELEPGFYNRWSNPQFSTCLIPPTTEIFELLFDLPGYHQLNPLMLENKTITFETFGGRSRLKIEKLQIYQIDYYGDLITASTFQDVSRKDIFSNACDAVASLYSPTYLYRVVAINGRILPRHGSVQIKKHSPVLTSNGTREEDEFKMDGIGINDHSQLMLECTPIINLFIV", "T1 sequence (P17967 29-522 partner)": "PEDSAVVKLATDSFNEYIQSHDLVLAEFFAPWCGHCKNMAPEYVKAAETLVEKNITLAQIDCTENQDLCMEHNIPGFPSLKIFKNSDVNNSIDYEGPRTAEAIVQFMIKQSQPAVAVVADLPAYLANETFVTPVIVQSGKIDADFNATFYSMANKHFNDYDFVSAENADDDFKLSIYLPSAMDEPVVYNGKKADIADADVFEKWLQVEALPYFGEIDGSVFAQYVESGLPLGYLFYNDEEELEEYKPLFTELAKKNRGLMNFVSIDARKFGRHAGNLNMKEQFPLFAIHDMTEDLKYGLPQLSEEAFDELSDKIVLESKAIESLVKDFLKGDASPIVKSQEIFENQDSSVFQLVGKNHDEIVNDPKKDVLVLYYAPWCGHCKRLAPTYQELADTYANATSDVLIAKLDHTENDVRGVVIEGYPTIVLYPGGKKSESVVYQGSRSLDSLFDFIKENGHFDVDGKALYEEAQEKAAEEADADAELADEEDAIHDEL", "assay": "MALDI-TOF MS glycan profiling of CPY* (Man8 to Man7 conversion)", "type": "biochemical", "settings": "glycoprotein substrate CPY* 2 μM, enzyme 0.1 μM, 2 mM CaCl2, pH 7.0, 30°C, 20 h; inhibitor concentration not given", "data": [{"smiles": "OC[C@H]1NC[C@@H](O)[C@@H](O)[C@@H]1O", "note": "[1-deoxymannojirimycin]", "values": [{"measurement": "MALDI-TOF MS glycan profiling of CPY* (Man8 to Man7 conversion)", "value": "Both chemicals inhibited the generation of Man7 on CPY*"}]}]}
